Assay results taken from ChEMBL document CHEMBL3039007, “Structure-based identification of OATP1B1/3 inhibitors” (Mol Pharmacol, 2013).

Assays:
[1] = target: T1, Solute carrier organic anion transporter family member 1B1 (Homo sapiens, UniProt Q9Y6L6); conditions: chinese hamster, cho, 10 µM
T1 sequence (Q9Y6L6 whole entry): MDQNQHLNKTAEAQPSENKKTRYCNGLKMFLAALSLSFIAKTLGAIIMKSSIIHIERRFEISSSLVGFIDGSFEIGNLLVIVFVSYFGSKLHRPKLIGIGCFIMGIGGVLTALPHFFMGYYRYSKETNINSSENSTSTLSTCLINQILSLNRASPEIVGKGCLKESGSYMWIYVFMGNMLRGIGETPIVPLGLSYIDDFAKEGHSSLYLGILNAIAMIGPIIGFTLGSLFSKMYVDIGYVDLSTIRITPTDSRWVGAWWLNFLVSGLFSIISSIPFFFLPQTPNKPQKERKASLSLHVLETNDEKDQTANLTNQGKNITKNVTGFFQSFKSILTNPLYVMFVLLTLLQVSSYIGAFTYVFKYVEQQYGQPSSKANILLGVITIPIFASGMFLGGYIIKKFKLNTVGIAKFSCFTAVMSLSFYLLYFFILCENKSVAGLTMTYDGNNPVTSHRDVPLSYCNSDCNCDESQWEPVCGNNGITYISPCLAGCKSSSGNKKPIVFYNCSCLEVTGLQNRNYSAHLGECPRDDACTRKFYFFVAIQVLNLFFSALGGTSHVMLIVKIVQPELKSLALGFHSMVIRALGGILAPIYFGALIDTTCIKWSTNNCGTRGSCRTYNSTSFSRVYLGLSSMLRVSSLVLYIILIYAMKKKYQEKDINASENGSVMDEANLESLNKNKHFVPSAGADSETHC

[2] = target: T2, Solute carrier organic anion transporter family member 1B3 (Homo sapiens, UniProt Q9NPD5); conditions: chinese hamster, cho, 10 µM
T2 sequence (Q9NPD5 whole entry): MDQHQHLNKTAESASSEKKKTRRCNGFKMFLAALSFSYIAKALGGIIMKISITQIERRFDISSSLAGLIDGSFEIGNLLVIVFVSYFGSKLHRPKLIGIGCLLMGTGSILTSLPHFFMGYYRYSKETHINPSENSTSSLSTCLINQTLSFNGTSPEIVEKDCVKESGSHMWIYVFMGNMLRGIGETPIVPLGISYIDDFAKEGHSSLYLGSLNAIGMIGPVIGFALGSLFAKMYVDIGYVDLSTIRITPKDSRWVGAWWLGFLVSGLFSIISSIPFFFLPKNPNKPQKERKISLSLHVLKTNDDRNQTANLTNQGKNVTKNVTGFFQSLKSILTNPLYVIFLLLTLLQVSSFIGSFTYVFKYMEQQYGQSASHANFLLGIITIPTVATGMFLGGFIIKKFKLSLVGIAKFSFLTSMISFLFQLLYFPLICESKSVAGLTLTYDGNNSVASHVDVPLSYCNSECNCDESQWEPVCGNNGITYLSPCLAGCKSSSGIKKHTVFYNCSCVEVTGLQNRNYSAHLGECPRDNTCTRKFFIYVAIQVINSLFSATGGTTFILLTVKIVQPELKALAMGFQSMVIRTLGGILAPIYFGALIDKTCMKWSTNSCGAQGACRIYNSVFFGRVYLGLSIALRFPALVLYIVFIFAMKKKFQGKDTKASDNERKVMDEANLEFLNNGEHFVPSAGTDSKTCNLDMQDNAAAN

CCOc1cccc(C(=O)c2ccc(O)c(O)c2O)c1
residual activity [1]: 134.3% | residual activity [2]: 108.6%

CNc1ccccc1C(=O)O
residual activity [1]: 90.95% | residual activity [2]: 100.4%

CC(=O)Oc1ccc2c(c1OC(C)=O)OC[C@]1(O)Cc3c(cc(OC(C)=O)c(OC(C)=O)c3OC(C)=O)[C@H]21
residual activity [1]: 101.4% | residual activity [2]: 111.5%

N[C@@H](CSCSC[C@H](N)C(=O)O)C(=O)O
residual activity [1]: 92.41% | residual activity [2]: 96.92%

C=C1C[C@H]2O[C@]2(C)CC[C@@H]2[C@@H]1CC2(C)C
residual activity [1]: 54.1% | residual activity [2]: 80.12%

C[C@H]1[C@H](C)CC[C@@]23CC[C@]4(C)[C@@](C=C[C@@H]5[C@@]6(C)CC[C@H](O)C(C)(C)[C@@H]6CC[C@]54C)(OC2=O)[C@H]13
residual activity [1]: 114.4% | residual activity [2]: 98.51%

C[C@@H]1C[C@H](O)[C@@]2(O)[C@]13CC(=O)OC[C@]2(C)[C@@](C)(O)C(=O)C3
residual activity [1]: 95.73% | residual activity [2]: 109.4%

CC1(C)C[C@@H]2[C@H]1CC[C@]1(C)C[C@@]2(O)CC[C@H]1O
residual activity [1]: 81.35% | residual activity [2]: 87.7%

CC1=CC2C(C(C)C)CC[C@@](C)(O)C2CC1 (some centres undefined)
residual activity [1]: 80.24% | residual activity [2]: 88.94%

C=C[C@@](C)(O)CC[C@H]1C(=C)C[C@H](OC(C)=O)[C@H]2C(C)(C)CCC[C@]12C
residual activity [1]: 81.97% | residual activity [2]: 80.26%

C=C1C([C@]2(C)C(CC(=O)OC)[C@@](C)(COC(C)=O)OC(=O)C[C@H]2OC(C)=O)[C@@H](OC=O)[C@@H](OC(=O)C(O)C(C)CC)[C@@]2(C)[C@H](c3ccoc3)CC(=O)C12O (some centres undefined)
residual activity [1]: 28.24% | residual activity [2]: 54.44%

NC[C@H]1O[C@H](O[C@H]2[C@H](O[C@@H]3O[C@H](CO)[C@@H](O)[C@H]3O)[C@@H](O)[C@H](N)C[C@@H]2N)[C@H](N)[C@@H](O)[C@@H]1O.O=S(=O)(O)O
residual activity [1]: 107.3% | residual activity [2]: 98.01%

Cc1cc(O)cc(=O)o1
residual activity [1]: 87.56% | residual activity [2]: 97.35%

CCCCC(CC)CN=C(N)N=C(N)NCCCCCCNC(N)=NC(N)=NCC(CC)CCCC.Cl (centres undefined) [ALEXIDINE HYDROCHLORIDE]
residual activity [1]: 69.95%

CCCCCCCCCCCCC[N+](C)(C)Cc1ccccc1.[Cl-] [BENZALKONIUM CHLORIDE]
residual activity [1]: 78.42%

CN1[C@@H]2CC[C@H]1C[C@@H](OC(=O)[C@H](CO)c1ccccc1)C2 [HYOSCYAMINE]
residual activity [1]: 97.76%

COc1ccc(-c2cc(=O)c3c(OC)c(OC)c(OC)c(OC)c3o2)cc1OC [NOBILETIN]
residual activity [2]: 133.3%

O=C(O)CCc1nc(-c2ccccc2)c(-c2ccccc2)o1 [OXAPROZIN]
residual activity [2]: 71.47%

CC(=O)O[C@H]1C(=O)[C@@]2(C)[C@H]([C@H](OC(=O)c3ccccc3)[C@]3(O)C[C@H](OC(=O)[C@H](O)[C@@H](NC(=O)c4ccccc4)c4ccccc4)C(C)=C1C3(C)C)[C@]1(OC(C)=O)CO[C@@H]1C[C@@H]2O [PACLITAXEL]
residual activity [2]: 52.9%

CCCCC1C(=O)N(c2ccccc2)N(c2ccccc2)C1=O [PHENYLBUTAZONE]
residual activity [2]: 62.24%

COc1cc(O)cc(/C=C/c2ccccc2)c1 [PINOSYLVIN METHYL ETHER]
residual activity [2]: 91.5%

CC(=O)[C@H]1CC[C@H]2[C@@H]3CC=C4C[C@@H](O)CC[C@]4(C)[C@H]3CC[C@]12C [PREGNENOLONE]
residual activity [2]: 110.4%

COC1=C[C@@H](C)[C@@H]2C[C@H]3OC(=O)C[C@H]4C(C)=C(OC)C(=O)[C@H]([C@@]2(C)C1=O)[C@@]34C [QUASSIN]
residual activity [2]: 100.5%

COc1ccc(/C=C/c2cc(O)cc(O)c2)cc1 [RESVERATROL 4'-METHYL ETHER]
residual activity [2]: 135%

COc1ccc(-c2cc(=O)c3c(OC)c(OC)c(OC)c(OC)c3o2)cc1 [TANGERETIN]
residual activity [2]: 175%

CC(=O)Oc1c(C)c(C)c2c(c1C)CCC(C)(CCCC(C)CCCC(C)CCCC(C)C)O2 (stereo not drawn) [alpha-TOCHOPHERYL ACETATE]
residual activity [2]: 93.84%
